Results published in US10730884B2, “Substituted indole compound derivatives as dengue viral replication inhibitors” (Janssen Pharmaceuticals, Inc., priority 2016, dated 2020).
Like-named read-outs stand apart in the source and are kept apart here.

Assays:
[1] = system: DENV-2 16681 strain; assay: DENV-2 antiviral assay (eGFP-labeled virus, Vero cells); format: cell-based, Dengue virus; conditions: for EC50: DENV-2 16681 eGFP, Vero cells, MOI 0.5, 3 days; for SI: SI=CC50/EC50, DENV-2 antiviral assay
Method: The antiviral activity of all the compounds of the invention was tested against the DENV-2 16681 strain which was labeled with enhanced green fluorescent protein (eGPF). The culture medium consists of minimal essential medium supplemented with 2% of heat-inactivated fetal calf serum, 0.04% gentamycin (50 mg/mL) and 2 mM of L-glutamine. Vero cells, obtained from ECACC, were suspended in culture medium and 25 μL was added to 384-well plates (2500 cells/well), which already contain the antiviral compounds. Typically, these plates contain a 5-fold serial dilution of 9 dilution steps of the test compound at 200 times the final concentration in 100% DMSO (200 nL). […] Finally, each plate contains wells which are assigned as virus controls (containing cells and virus in the absence of compound), cell controls (containing cells in the absence of virus and compound) and medium controls (containing medium in the absence of cells, virus and compounds). To the wells assigned as medium control, 25 μL of culture medium was added instead of Vero cells. Once the cells were added to the plates, the plates were incubated for 30 minutes at room temperature to allow the cells to distribute evenly within the wells. Next, the plates were incubated in a fully humidified incubator (37° C., 5% CO2) until the next day. Then, DENV-2 strain 16681, labeled with eGFP, was added at a multiplicity of infection (MOI) of 0.5. Therefore, 15 μL of virus suspension was added to all the wells containing test compound and to the wells assigned as virus control. In parallel, 15 μL of culture medium was added to the medium and cell controls. Next, the plates were incubated for 3 days in a fully humidified incubator (37° C., 5% CO2). At the day of the read out, the eGFP fluorescence was measured using an automated fluorescence microscope at 488 nm (blue laser). Using an in-house LIMS system, inhibition dose response curves for each compound were calculated and the half maximal effective concentration (EC50) was determined. Therefore, the percent inhibition (I) for every test concentration is calculated using the following formula: I=100*([…])/(SVC−SCC); ST, SCC and SVC are the amount of eGFP signal in the test compound, cell control and virus control wells, respectively. The EC50 represents the concentration of a compound at which the virus replication is inhibited with 50%, as measured by a 50% reduction of the eGFP fluorescent intensity compared to the virus control. The EC50 is calculated using linear interpolation (Table 1).

[2] = in vitro; conditions: African green monkey
[3] = system: DENV-1 strain TC974#666; assay: Tetravalent RT-qPCR assay, serotype 1; format: cell-based, Dengue virus; conditions: for EC50: Dengue virus, DENV1, Vero, 72 h, RT-qPCR serotype 1 TC974#666, Protocol A, Vero cells, day 3, read-out: EC50; for SI: RT-qPCR serotype 1 TC974#666
Method: (§1) The antiviral activity of the compounds of the invention was tested against DENV-1 strain TC974#666 (NCPV), DENV-2 strain 16681, DENV-3 strain H87 (NCPV) and DENV-4 strain H241 (NCPV) in a RT-qPCR assay. Therefore, Vero cells were infected with either DENV-1, or -2, or -3, or -4 in the presence or absence of test compounds. At day 3 post-infection, the cells were lysed and cell lysates were used to prepare cDNA of both a viral target (the 3′UTR of DENV; Table 2) and a cellular reference gene (β-actin, Table 2). Subsequently, a duplex real time PCR was performed on a Lightcycler480 instrument. The generated Cp value is inversely proportional to the amount of RNA expression of these targets. Inhibition of DENV replication by a test compound result in a shift of Cp's for the 3′UTR gene. On the other hand, if a test compound is toxic to the cells, a similar effect on β-actin expression will be observed. The comparative ΔΔCp method is used to calculate EC50, which is based on the relative gene expression of the target gene (3′UTR) normalized with the cellular housekeeping gene (β-actin). In addition, CC50 values are determined based on the Cp values acquired for the housekeeping gene β-actin.
(§2) The culture medium consisted of minimal essential medium supplemented with 2% of heat-inactivated fetal calf serum, 0.04% gentamycin (50 mg/mL) and 2 mM of L-glutamine. Vero cells, obtained from ECACC, were suspended in culture medium and 75 μL/well was added in 96-well plates (10000 cells/well), which already contain the antiviral compounds. […] In addition, each plate contains wells which are assigned as virus controls (containing cells and virus in the absence of compound) and cell controls (containing cells in the absence of virus and compound). Once the cells were added in the plates, the plates were incubated in a fully humidified incubator (37° C., 5% CO2) until the next day. Dengue viruses serotype-1, 2, 3 and 4 were diluted in order to obtain a Cp of ˜22-24 in the assay. Therefore, 25 μL of virus suspension was added to all the wells containing test compound and to the wells assigned as virus control. In parallel, 25 μL of culture medium was added to the cell controls. Next, the plates were incubated for 3 days in a fully humidified incubator (37° C., 5% CO2). After 3 days, the supernatant was removed from the wells and the cells were washed twice with ice-cold PBS (˜100 μL). The cell pellets within the 96-well plates were stored at −80° C. for at least 1 day. Next, RNA was extracted using the Cells-to-CT™ lysis kit, according to the manufacturer's guideline (Life Technologies). The cell lysates can be stored at −80° C. or immediately used in the reverse transcription step.
(§3) In preparation of the reverse transcription step, mix A (table 3A) was prepared and 7.57 μL/well was dispensed in a 96-well plate. After addition of 5 μL of the cell lysates, a five minute denaturation step at 75° C. was performed (table 3B). Afterwards, 7.43 μL of mix B was added (table 3C) and the reverse transcription step was initiated (table 3D) to generate cDNA.
(§4) Finally, a RT-qPCR mix was prepared, mix C (table 4A), and 22.02 μL/well was dispensed in 96-well LightCycler qPCR plates to which 3 μL of cDNA was added and the qPCR was performed according to the conditions in table 4B on a LightCycler 480.
(§5) Using the LightCycler software and an in-house LIMS system, dose response curves for each compound were calculated and the half maximal effective concentration (EC50) and the half maximal cytotoxic concentration (CC50) were determined (Tables 5-8).

[4] = system: DENV-2 strain 16681; assay: Tetravalent RT-qPCR assay, serotype 2; format: cell-based, Dengue virus; conditions: for EC50: Dengue virus, DENV2, Vero, 72 h, RT-qPCR serotype 2 16681, Protocol A, Vero cells, day 3; for SI: RT-qPCR serotype 2 16681
Method: as §1, §2, §3, §4, §5

[5] = system: DENV-3 strain H87; assay: Tetravalent RT-qPCR assay, serotype 3; format: cell-based, Dengue virus; conditions: for EC50: Dengue virus, DENV3, Vero, 72 h, RT-qPCR serotype 3 H87, Protocol A, Vero cells, day 3, read-out: EC50; for SI: RT-qPCR serotype 3 H87
Method: as §1, §2, §3, §4, §5

[6] = system: DENV-4 strain H241; assay: Tetravalent RT-qPCR assay, serotype 4; format: cell-based, Dengue virus; conditions: for EC50: Dengue virus, DENV4, Vero, 72 h, RT-qPCR serotype 4 H241, Protocol A, Vero cells, day 3; for SI: RT-qPCR serotype 4 H241
Method: as §1, §2, §3, §4, §5

[7] = in vitro; format: cell-based; conditions: African green monkey, CC50
Method: as §1, §2, §5

[8] = system: Vero cells; conditions: African green monkey
[9] = system: Vero cells; assay: in vitro; format: cell-based; conditions: African green monkey, 3 days
Method: as §1, §2, §5

[10] = system: DENV-2; conditions: analogous DENV-2 antiviral assay, reported activity; cited from earlier work
[11] = Dengue virus, DENV2, Vero, 72 h

`COc1cc(NC(C(=O)c2c[nH]c3c(C)cc(Cl)cc23)c2ccc(F)cc2OC)cc(OCCO)c1` (racemic) [Compound 1, 1-(5-chloro-7-methyl-1H-indol-3-yl)-2-(4-fluoro-2-methoxyphenyl)-2-((3-(2-hydroxyethoxy)-5-methoxyphenyl)amino)ethanone] gave an EC50 [1, 11] of 2.7 nM, an SI [1] of 1800 and a melting point of 118 °C. For the same molecule, the CC50 [2] was 4900 nM.

`COc1cc(NC(C(=O)c2c[nH]c3cc(OC)c(Cl)cc23)c2ccc(F)cc2OC)cc(OCCO)c1` (racemic) [Compound 2, 1-(5-chloro-6-methoxy-1H-indol-3-yl)-2-(4-fluoro-2-methoxyphenyl)-2-((3-(2-hydroxyethoxy)-5-methoxyphenyl)amino)ethanone] showed an EC50 [1, 11] of 1.5 nM, an SI [1] of 4410 and a melting point of 210 °C. For the same molecule, the CC50 [2] was 6700 nM.

With `COc1cc(NC(C(=O)c2c[nH]c3cc(F)c(C)cc23)c2ccc(F)cc2OC)cc(OCCO)c1` (racemic) [Compound 3, 2-(4-fluoro-2-methoxyphenyl)-1-(6-fluoro-5-methyl-1H-indol-3-yl)-2-((3-(2-hydroxyethoxy)-5-methoxyphenyl)amino)ethanone] the EC50 [1, 11] was 3.5 nM, the SI [1] was 1140 and the melting point was 197 °C. For the same molecule, the CC50 [2] was 4000 nM.

Work on `COc1cc(NC(C(=O)c2c[nH]c3ccc(C)cc23)c2ccc(F)cc2OC)cc(OCCO)c1` (racemic) [Compound 5, 2-(4-fluoro-2-methoxyphenyl)-2-((3-(2-hydroxyethoxy)-5-methoxyphenyl)amino)-1-(5-methyl-1H-indol-3-yl)ethanone] yielded an EC50 [1, 11] of 4.8 nM, an SI [1] of 3190 and a melting point of 199 °C. The CC50 [2] was 14000 nM.

`COc1cc(NC(C(=O)c2c[nH]c3cc(F)c(C)cc23)c2ccc(Cl)cc2OC)cc(OCCO)c1` (racemic) [Compound 9, 2-(4-chloro-2-methoxyphenyl)-1-(6-fluoro-5-methyl-1H-indol-3-yl)-2-((3-(2-hydroxyethoxy)-5-methoxyphenyl)amino)ethanone] showed an EC50 [1, 11] of 1.2 nM, an SI [1] of 2480 and a melting point of 177 °C. It also gave a CC50 [2] of 3100 nM.

With `COc1cc(NC(C(=O)c2c[nH]c3c(C)cc(Cl)cc23)c2ccc(F)cc2OC)cc(OCCO)c1` (single isomer, unassigned) [Compound 1A] the EC50 [1] was 1.7 nM, the SI [1] was 2070 and the EC50 [3] was 6.2 nM. For the same molecule, the SI [3] was 461, the EC50 [4] was 3.2 nM and the SI [4] was 1080. For the same molecule, the EC50 [5] was 39 nM, the SI [5] was 49 and the EC50 [6] was 220 nM. For the same molecule, the SI [6] was 8.7, the CC50 at 3 days [7] was 2900 nM and the CC50 [8] was 3600 nM.

`COc1cc(NC(C(=O)c2c[nH]c3cc(OC)c(Cl)cc23)c2ccc(F)cc2OC)cc(OCCO)c1` (single isomer, unassigned) [Compound 2A] showed an EC50 [1] of 0.71 nM, an SI [1] of 6340 and an EC50 [3] of 9.2 nM. For the same molecule, the SI [3] was 350, the EC50 [4] was 1 nM and the SI [4] was 3350. It also gave an EC50 [5] of 34 nM, an SI [5] of 90 and an EC50 [6] of 230 nM. It also gave an SI [6] of 9.1, a CC50 at 3 days [7] of 2900 nM and a CC50 [8] of 4500 nM.

In the case of `COc1cc(NC(C(=O)c2c[nH]c3cc(OC(F)(F)F)c(C)cc23)c2ccc(F)cc2OC)cc(OCCO)c1` (single isomer, unassigned) [Compound 4B], the EC50 [1] is reported as 8.1 nM, the SI [1] is reported as 409 and the EC50 [3] is reported as 24 nM. It also gave an SI [3] of 128, an EC50 [4] of 6.6 nM and an SI [4] of 553. For the same molecule, the EC50 [5] was 120 nM, the SI [5] was 16 and the EC50 [6] was 300 nM. For the same molecule, the SI [6] was 8.1, the CC50 at 3 days [7] was 3800 nM and the CC50 [8] was 3300 nM.

With `COc1cc(NC(C(=O)c2c[nH]c3cc(OC)c(C)c(F)c23)c2ccc(Cl)cc2OC)cc(OCCO)c1` (single isomer, unassigned) [Compound 12B] the EC50 [1] was 0.26 nM, the SI [1] was >48400 and the EC50 [3] was 4.9 nM. For the same molecule, the SI [3] was >508, the EC50 [4] was 0.25 nM and the SI [4] was >12200. For the same molecule, the EC50 [5] was 20 nM, the SI [5] was >106 and the EC50 [6] was 180 nM. For the same molecule, the SI [6] was >15, the CC50 at 3 days [7] was > 2200 nM and the CC50 [9] was > 2500 nM. The CC50 [8] was 4600 nM.

In the case of `COc1cc(NC(C(=O)c2c[nH]c3ccccc23)c2ccc(F)cc2)cc(OCCO)c1` (centres unmarked) [(350) of WO-2013/045516], the EC50 [10] is listed as 10 nM and the SI [10] is listed as 3462.
